Patent US8148359B2, “Chelating agents of metal ions, their methods of preparation and their applications” (Commissariat a l'Energie Atomique, priority 2009, dated 2012)
Where two headings read alike, the source gives them in different places.

How the values were obtained:
[1] = Cu(I) affinity by competition with bathocuproine disulfonate (BCS), UV-visible; type: binding; settings: for BCS equivalents (number of equivalents of BCS relative to Cu necessary to displace 50% of the copper complexed by the ligand): [Cu]0 = 0.9 [L]o, 20 mM phosphate buffer, pH 7.4, 298 K; for Kapp for Cu(I): pH 7.4, 20 mM phosphate buffer; for Cu/Zn Sel. (log Kapp(Cu) - log Kapp(Zn)): Cu(I) versus Zn(II)
Protocol: Since the —SH thiol functions of the chelating agents are capable of becoming oxidized in air, all the solutions were prepared in a glovebox under an argon atmosphere. Ligand solutions were then prepared, before each experiment, using water that had been deoxygenated and purified with a Millipore Milli-Q® system containing 20 mM of a solution of phosphate buffer (pH=7.4) and of acetonitrile (v/v: 9/1).
This method uses 5,5′-dithiobis-2-nitrobenzoic acid (DNTB) as indicator, each free thiol group present in the ligand producing 1 equivalent of TNB^2− (ε^412 nm (TNB^2−)=14 150 M^−1.cm^−1, ε^412 nm being the molar extinction coefficient for TNB^2− at 412 nm). The concentrations of the ligand solution are between 30 and 100 μm.
The solutions of Cu(I) copper were prepared by dissolving an appropriate amount of Cu(CH3CN)4 PF6 in deoxygenated acetonitrile. The final concentration is determined by adding an excess of sodium bathocuproine disulfonate (Na2BCS) and by measuring the absorbance of the Cu(BCS)2^3− (λmax=483 nm, ε=13 300 M^−1.cm^−1).
The affinity constants were measured by means of a known competitor having a strong affinity for Cu(I), bathocuproine disulfonate (BCS), which forms Cu(I) complexes of known stability according to the reaction below:
The higher this percentage, the higher the affinity of the sulfur-containing ligand for Cu(I).
The complexes of Cu(I) copper with the ligands are quantitatively determined with bathocuproine disulfonate (BCS) with the aim of measuring their affinity constants. […] The formation of the complex is then carried out by stirring the mixture for 10 minutes under argon.
Aliquots of a solution of bathocuproine disulfonate (BCS) in the same buffer solution are then added to the ligand-copper complex.
The UV-visible spectra are then recorded, and the absorbance stability is verified before the addition of the other aliquots.

[2] = Hg(II) affinity by competition with EDTA; type: binding
Protocol: For Hg(II), which has a very high affinity for thiolate ligands, we performed a competition with EDTA having a known affinity constant (cf. Table IV) according to the following reaction: HgL+EDTA→L+HgEDTA
A solution of mercury is prepared by dissolving HgCl2 in water. An HgL complex is formed by adding aliquots of this mercury solution to a solution of ligand in a 20 mM phosphate buffer solution at pH=7.4, up to 0.9 equivalent. The change in the LMCT band for Hg(II) at 290 nm is subsequently followed by titration with a 5 mM solution of Na2EDTA.

[3] = pH = 7.4; difference matches the Cu(II) and Zn(II) values of the table
Source text: (§1) In general, the formation of a complex from a metal M and n ligands L is written: M+nL⇄[M(L)n]
(§2) Associated with this reaction is an apparent complexation constant log Kapp, where: Kapp=[ML]/[M][L]tot in which: • [ML] is the concentration of complex, • [M] is the concentration of metal, and • [L]tot is the concentration of […] ligand (whatever its protonated form).

[4] = Apparent complexation constants of known chelating agents, Hg(II); type: binding; settings: pH = 7.4; log Kapp(Hg) - log Kapp(Zn)
Source text: as §1, §2

[5] = Apparent complexation constants of known chelating agents, Cu(I); type: binding; settings: pH = 7.4; difference matches the Cu(I) and Zn(II) values of the table
Source text: Associated with this reaction is an apparent complexation constant log Kapp, where: Kapp=[ML]/[M][L]tot in which: • [ML] is the concentration of complex, • [M] is the concentration of metal, and • [L]tot is the concentration of free ligand (whatever its protonated form).

Question: What does the source list for `NC(=O)[C@H](CS)NC(=O)CN(CC(=O)N[C@@H](CS)C(N)=O)CC(=O)N[C@@H](CS)C(N)=O` [Compound 6, NTA(CysNH2)3]?
Answer: BCS equivalents (number of equivalents of BCS relative to Cu necessary to displace 50% of the copper complexed by the ligand) [1]: 50 equivalents; Kapp for Cu(I) [1]: 10^19

Question: Which results are given for `CCOC(=O)[C@H](CS)NC(=O)CN1CCN(CC(=O)N[C@@H](CS)C(=O)OCC)CCN(CC(=O)N[C@@H](CS)C(=O)OCC)CC1` [Compound 9, NOTA(CysOC2H5)3]?
Answer: Cu/Zn Sel. (log Kapp(Cu) - log Kapp(Zn)) [1]: 7.5-9.5; BCS equivalents (number of equivalents of BCS relative to Cu necessary to displace 50% of the copper complexed by the ligand) [1]: 12 equivalents

Question: Which “Cu/Ca Sel. (log Kapp(Cu) - log Kapp(Ca))” value ([1]; Cu(I) versus Ca(II)) does the source give for `CCOC(=O)C(CS)NC(=O)CN(CC(=O)NC(CS)C(=O)OCC)CC(=O)NC(CS)C(=O)OCC` (stereo not drawn) [Compound 4, NTA(CysOC2H5)3] here?
Answer: Its value is greater than 16.

Question: What about the “Cu/Zn Sel. (log Kapp(Cu) - log Kapp(Zn))” value [1] of the same compound?
Answer: The value was 9.9.

Question: What about the “BCS equivalents (number of equivalents of BCS relative to Cu necessary to displace 50% of the copper complexed by the ligand)” value [1] of the same compound?
Answer: The value was 57 equivalents.

Question: What about the “Kapp for Cu(I)” value [1] of the same compound?
Answer: The value was 10^19.

Question: What about the “Hg/Ca Sel. (log Kapp(Hg) - log Kapp(Ca))” value ([2]; Hg(II) versus Ca(II)) of the same compound?
Answer: Its value is greater than 19.5.

Question: What about the “Hg/Zn Sel. (log Kapp(Hg) - log Kapp(Zn))” value ([2]; Hg(II) versus Zn(II)) of the same compound?
Answer: The value was greater than 13.4.

Question: For `O=C(O)CN(CCN(CC(=O)O)CC(=O)O)CC(=O)O` [EDTA, ethylenediaminetetraacetic acid], which Cu/Zn selectivity [3] is on record?
Answer: Its Cu/Zn selectivity is 2.3.

Question: What about the Hg/Zn selectivity [4] of the same compound?
Answer: Its Hg/Zn selectivity is 5.

Question: For `O=C(CN(CC(=O)NC(CS)C(=O)O)CC(=O)NC(CS)C(=O)O)NC(CS)C(=O)O` (stereo not drawn) [Compound 3, NTA(CysOH)3], which “BCS equivalents (number of equivalents of BCS relative to Cu necessary to displace 50% of the copper complexed by the ligand)” value [1] is on record?
Answer: The value was 3.5 equivalents.

Question: Which Hg/Zn selectivity [4] does the source give for `CC(C)(S)[C@@H](N)C(=O)O` [Pen, D-penicillamine] here?
Answer: The Hg/Zn selectivity was 9.1.

Question: What about the Cu/Zn selectivity [5] of the same compound?
Answer: The Cu/Zn selectivity was 2.5.

Question: Which Hg/Zn selectivity [4] does the source give for `OCC(S)CS` (stereo not drawn) [BAL, 2,3-dimercaptopropanol] here?
Answer: The Hg/Zn selectivity was 12.2.

Question: What does the source list for `NCCNCCNCCN` [Trien, triethylenetetramine]?
Answer: Cu/Zn selectivity [3]: 8.1; Hg/Zn selectivity [4]: 12.7
